We go through two molecules from patent publication US6331555A, “Treatment of platelet derived growth factor related disorders such as cancers” (priority 1999, dated 2001).

The nature of one data set: LD10. The settings on record: in vivo.
A further data set deals with PDGF-R. The experiment in a line: PDGF-R autophosphorylation, T98G glioblastoma cells. Conditions: 200, 500, 1000 mM; 20 ng/ml PDGF-BB. The class given is cell-based, human. As to the method:
Proteins were then separated by SDS-polyacrylamide gel electrophoresis (PAGE). Proteins containing phosphorylated tyrosine were identified by western blotting with an anti-phosphotyrosine antibody. The level of phosphorylated tyrosine was determined by quantitating the amount of bound anti-phosphotyrosine. Quantitation was carried out by peak area integration using a Molecular Dynamics Computing Densitometer (Model 300S), and Image Quant v3.0 software (Molecule Dynamics). Data were expressed as relative peak.intensity (phosphorylation of a receptor divided by the total amount of phosphorylated tyrosine).
T98G cells were plated in MCDB105 medium containing 2% FBS and incubated for 24 hours at 37° C. […] The cells were then treated with ligand for 10 minutes (20 ng/ml PDGF-BB or 50 ng/ml EGF). The cells were lysed and the level of phosphorylated receptor was quantitated as described in Example 1.

The test system of the next data set is BT474. Kind of data set: Tumor cell line growth. The class given is cell-based. The settings on record: Homo sapiens, BT-474, 96 h; breast, 4 days. As to the method:
(§1) The assay measures protein content of acid-fixed cells using the counterion binding dye sulforhodamine B (SRB, Sigma). […] For other cell lines, the cells (2000 cells/well in 100 μL) were introduced into wells immediately after dispensing the drug solutions. After 4 days (37° C., 5% CO2) the monolayers were washed 3 times with PBS and fixed with 200 μL ice-cold 10% TCA (Fisher Scientific), and kept at 4° C. for 60 min. The TCA was removed and the fixed monolayers were washed 5 times with tap water and allowed to dry completely at room temperature on absorbent paper. The cellular protein was stained for 10 min with 100 μL 0.4% SRB dissolved in 1% acetic acid. After 5 washes with tap water, the dye was solubilized in 10 mM Tris base (100 μL per well) and absorbance read at 570 nm on a Dynatech plate reader model MR5000. Growth inhibition data are expressed as a percentage of absorbance detected in control wells which were treated with 0.4% DMSO alone. DMSO controls were not different from cells grown in regular growth medium. IC50 values were determined using a four parameter curve fit function.
(§2) For K562, DlB, L1210, 7TDl, T27A, and Colo320 DM cells, an MTT assay was used to assess cell growth. […] The cells were incubated at 37° C. for 4 days in a humidified 7% CO2 atmosphere. At the end point, […] of MTT (5 mg/mL in PBS, Sigma) was added to each well. The plates were incubated at 37° C. for 4 hr followed by addition of […] of solubilization solution (20% w/v of SDS in 50% N, N-dimethylformamide, pH 4.7) to each well. The plates were incubated overnight in a sealed container with a humidified atmosphere. The absorbance was determined at 570 nm wavelength with a reference wavelength of 630 nm using an ELISA plate reader.

In a further data set the test system is HBL100. Kind of data set: Tumor cell line growth. The data set is classed as cell-based. Conditions: Homo sapiens, HBL-100, 96 h; breast, 4 days. As for the experimental part:
as §1, §2

In the next data set the test system is PA-1. The experiment in a line: Tumor cell line growth. The class given is cell-based. The settings on record: Homo sapiens, PA-1, 96 h; ovarian, 4 days. As for the experimental part: as §1, §2
The next data set has as its system PC3. Kind of data set: Tumor cell line growth. The data set is classed as cell-based. The settings on record: Homo sapiens, PC-3, 96 h; prostate, 4 days. As to the method:
as §1, §2

Data set [1] in a line: Effects of A10 on mortality (mice implanted with C6 cells). The class given is in vivo, mouse. The settings on record: mouse, in vivo, ip. As to the method:
(§3) Cell lines were grown in appropriate medium (see Appendix 1). Cells were harvested at or near confluency with 0.05% Trypsin-EDTA and pelleted at 450×g for 10 min. Pellets were resuspended in sterile PBS or media (without FBS) to a particular concentration and the cells were implanted into the hindflank of mice. Tumor growth was measured over 3 to 6 weeks using venier calipers. Tumor volumes were calculated as a product of length×width×height unless otherwise indicated. P values were calculated using the Students' t-test.

Data set [2] deals with mice implanted with C6 cells. The description is as above. The data set is classed as in vivo, mouse. As to the method:
as §3

The test system of a further data set is RR-SRC peptide substrate. Conditions: cited from earlier work.

pIC50: −log10 of the molar value.

Turning to `c1ccc(-c2cnc3cc4ccccc4cc3n2)cc1` [Compound G22], the LD10 in “LD10” is on record as 25 mg/kg.

Consider `Cc1oncc1C(=O)Nc1ccc(C(F)(F)F)cc1` [Compound A10, 5-methylisoxazole-4 carboxylic acid-(4-trifluromethyl)-anilide], for which the “autophosphorylation of PDGF-R by PDGF” value with PDGF-R is on record as “inhibited autophosphorylation of PDGF-R by PDGF”. The negative-log IC50 (pIC50) with BT474 was below 4.00; in the data set with HBL100 it was below 3.40; in the data set with PA-1, 4.40; in the data set on PC3, 4.34. For the same molecule, the mortality was 0% in data set [1] (25 mg/kg/day (PBTE:D5W), 67 treatments, n 8); 50% in [1] (30 mg/kg/day (PBTE), 48 treatments, n 4); 75% in [1] (40 mg/kg/day (PBTE), 48 treatments, n 4); 54% in data set [2] (20 mg/kg/day (DMSO), 21 treatments, n 26); 8% in data set [2] (20 mg/kg/day (PBTE), 20-48 treatments, n 12). Besides, the “mortality rate by formulation” value in data set [2] (PBTE:D5W compared to DMSO and PBTE) was “significantly reduced the mortality rate compared to DMSO formulations, and PBTE formulations”. The “tyrosine phosphorylation of the RR-SRC peptide substrate” value with RR-SRC peptide substrate is “dose dependently, inhibited”.
